{"source": "patent US8822531B2", "about": "“Honokiol analogs and their use in treating cancers” (priority 2007, dated 2014)", "tested_on": "tumor cells", "test": "Tumor volume in nude mice injected subcutaneously with tumor cells, treated with honokiol diepoxide", "type": "in vivo", "conditions": "40 mg/kg daily intraperitoneally", "procedure": "Nude mice were injected subcutaneously with approximately one million tumor cells. Once tumors became visible, they were treated with 40 mg/kg daily of honokiol diepoxide. The compound was reconstituted in 100 microliters of ethanol and diluted with 900 microliters of 20% Intralipid, and 0.3 ml of this mixture was injected intraperitoneally daily. Tumors were measured with vernier calipers, and tumor volume was calculated using the formula (width^2×length)0.52, where width is the smallest dimension, 2 represents squared, and […].", "note": "Several values for one entry are separate records, joined by “and”; a condition that tells them apart may be missing. Equal entries are not always repeated."}
{"smiles": "Oc1ccc(-c2cc(CC3CO3)ccc2O)cc1CC1CO1", "note": "(stereo not shown) [Honokiol Epoxide, honokiol diepoxide]", "values": [{"measurement": "Average (tumor volume)", "setting": "group average, in mm³ (unit assumed)", "result": 433.3632}, {"measurement": "Tumor Volume", "setting": "individual animal, volume = (width^2 x length) x 0.52, 40 mg/kg, in mm³ (unit assumed)", "result": "385.2 and 914.8568 and 0"}, {"measurement": "W (tumor width)", "setting": "individual animal, vernier calipers, 40 mg/kg", "result": "8.59 and 11 and 0"}, {"measurement": "L (tumor length)", "setting": "individual animal, vernier calipers, 40 mg/kg, in mm (unit assumed)", "result": "10.04 and 14.54 and 0"}]}
